# Tests used:
# [1] = Drug releasing characteristics of the active ingredient from the scaffold; type: physicochemical
# Procedure: To evaluate the drug releasing characteristics of the active ingredient included in the scaffold, the scaffold for hard tissue regeneration (containing Quercetein by 200 μm/scaffold) prepared in Example 1 was dipped in body fluid like PBS (phosphate buffered saline) or de-ionized water in a 37° C. shaker. Sampling of the solution was performed hourly and the concentration of Quercetein released in the solution was measured. Quercetein is a hydrophobic material, so that it is very difficult to detect the concentration by dissolving. To evaluate the drug releasing activity in a solution where the active material is dissolved, the experiment was equally performed with ethanol, the dissolving solvent.
# The following experiment was performed by the same manner as described in Example <1-1> except that the scaffold for hard tissue regeneration (containing Genistein by 200 μm/scaffold) prepared in Example 3 instead of the scaffold for hard tissue regeneration (containing Quercetein by 200 μm/scaffold) prepared in Example 1.
# MC3T3-E1 cells = experiment: Osteoblast proliferation activity, MTS assay, drug in medium; type: cell-based
# Procedure: MC3T3-E1 cells (MC3T3-E1 Subclone 4, ATCC CRL-2593, obtained from ATCC) were cultured in α-MEM (α-Minimum Essential Medium, GIBCO) supplemented with FBS (Fetal Bovine Serum) and penicillin/streptomycin under the standard culture condition (37° C., 5% CO2). When the cells were grown to 70˜80% confluency, the cells were trypsinized. Then, the cells were collected by centrifugation.
# The collected MC3T3-E1 cells were seeded at the density of 1.0×10^4 cells, followed by standard culture for 2 hours. The medium containing Quercetein at the concentrations of 0, 1, 10, 50, 100, and 200 μm was added thereto.
# To observe the metabolic activity of the seeded MC3T3-E1 cells, colorimetric 3-(4,5-dimethylthiazole-2-yl)-5-(3-carboxymethoxyphenol)-2-(4-sulfophenyl)-2H-tetrazolium (MTS) assay (CellTiter 96® AQeous One solution Cell Proliferation Assay, Promega) was performed according to the manufacturer's instruction. The MTS tetrazolium compound is converted biologically and dissolved in the tissue culture medium by the cells into a formazan product displaying highest absorbance at 490 nm.
# The following experiment was performed by the same manner as described in Experimental Example <2-1> except that Genistein was used instead of Quercetein.
# [2] = tested on: RAW 264.7 cells, the multinuclear osteoclasts treated with RANKL; experiment: Osteoclast proliferation activity, drug in medium; type: cell-based; settings: for inhibition of osteoclast proliferation, ranking among Quercetein, Genistein, Alendronate: same dose; for proliferation of osteoclasts: compared with the case not treated, 1 μM or 200 μM
# [3] = Solubility of the active ingredient; type: physicochemical
# [4] = determined from the proliferation of osteoblasts
Structure (SMILES),"Genistein released ([1]; from scaffold of Example 3 (200 μm/scaffold), ethanol, early 5 days)","Genistein released ([1]; from scaffold of Example 3, de-ionized water and PBS, over 55 days, without early acute release)","proliferation of osteoblasts (MC3T3-E1 cells; 1 μM, day 3 and day 5)","promoting effect on osteoblast proliferation relative to Quercetein (MC3T3-E1 cells; 1 μM, day 3 and day 5)","proliferation of osteoblasts (MC3T3-E1 cells; concentration increased from 1 to 10 μM, vs non-treated group)",proliferation of osteoblasts (MC3T3-E1 cells; concentration over 10 μM),most preferable concentration (osteoblast proliferation) (MC3T3-E1 cells; [4]),preferable concentration (osteoblast proliferation) (MC3T3-E1 cells; [4]),"inhibition of osteoclast proliferation, ranking among Quercetein, Genistein, Alendronate ([2]; 1 μM)",proliferation of osteoclasts [2],solubility in an aqueous solution [3],"solubility in ethanol compared with that of Quercetein ([3]; ethanol, from comparison of release results)","Quercetein released ([1]; from scaffold of Example 1 (200 μm/scaffold), ethanol, 37° C. shaker, over 40 days, without early acute release)","Quercetein released ([1]; from scaffold of Example 1, de-ionized water and PBS, 37° C., early 20 days)","Quercetein released ([1]; from scaffold of Example 1, de-ionized water and PBS, 37° C., over 68 days)","Quercetein released ([1]; from scaffold, de-ionized water and PBS, over 60 days)","effect on the proliferation of osteoblasts (MC3T3-E1 cells; 200 μM, day 3 and day 5, comparison with Alendronate)","proliferation of osteoblasts (MC3T3-E1 cells; concentration increased from 1 to 200 μM, vs non-treated group, day 1, 3, 5)","inhibition of osteoclast proliferation, ranking among Quercetein, Genistein, Alendronate ([2]; 200 μM)"
O=c1c(-c2ccc(O)cc2)coc2cc(O)cc(O)c12 [Genistein],100%,60%,promoted the proliferation of osteoblasts,greater than that of Quercetein,increased,rather inhibited,1 µM,1˜10 μM,most excellent in inhibiting the proliferation of osteoclasts,significantly inhibited,low,even higher,–,–,–,–,–,–,–
O=c1c(O)c(-c2ccc(O)c(O)c2)oc2cc(O)cc(O)c12 [Quercetein],–,–,promoted the proliferation of osteoblasts,–,–,–,–,1˜200 μM,–,significantly inhibited,low,–,100%,10%,approximately 50%,50%,increased the proliferation significantly,increased Quercetein dose-dependently,most excellent in inhibiting the proliferation of osteoclasts

# From patent publication US9889234B2, “Scaffold for hard tissue regeneration containing active ingredient for treating osteoporosis and preparing method thereof” (KOREA INSTITUTE OF MACHINERY AND MATERIALS, priority 2014, dated 2018)
